What all share (assay): NCI-60 cell line screen, 48 h
Assay [1] has as its system DU-145 prostate.
Assay [2] concerns NCI-H226 lung.
The subject of assay [3] is UACC-62 melanoma.
In assay [4] the test system is KM12 colon.
For assay [5], the system named is MCF7 breast.
Assay [6] has as its system SW-620 colon.
Assay [7] deals with OVCAR-3 ovarian.
For assay [8], the system named is ACHN renal.
Assay [9] has as its system PC-3 prostate.
In assay [10] the test system is SN12C renal.

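Tested at 5 concentrations; 48 h exposure; 96-well plates; endpoints linearly interpolated, else capped at highest concentration. Abbreviation: GI50, concentration required for 50% inhibition of growth. TGI marks complete inhibition of growth.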 Bounds are passed on as bounds.

Turning to `C#CCN=C(N/N=C/c1ccc([N+](=O)[O-])o1)NS(=O)(=O)c1cc(C)c(Cl)cc1SCC(N)=O`, the GI50 was 11.6 µM in assay [1]; 20.1 µM in assay [2]; 47.3 µM in assay [3]; 18.8 µM in [4]; 6.59 µM in assay [5]; 4.44 µM in assay [6]. The GI50 in assay [7] was 24.9 µM; in assay [8], 16.7 µM; in [9], 20.4 µM; in assay [10], 15.5 µM. In addition, the TGI in assay [1] is 24.5 µM; in [2] it was 40.5 µM; in assay [3], over 100 µM; in assay [4], 38.9 µM; in assay [5] it was 22.5 µM; in [6] it was 17.1 µM. Further, the TGI worked out at 41.1 µM in [7], 36.8 µM in assay [8], 38.7 µM in assay [9] and 29.4 µM in assay [10].
Regarding `O=C(O)c1ccc2c(c1Nc1ccccc1)C(=O)c1ccccc1C2=O`, the GI50 in [1] is 82.8 µM; in assay [2], 24.2 µM; in assay [3] it was 35.6 µM; in [4] it was 61.1 µM; in assay [5], 38.1 µM; in [6], 44.1 µM. The GI50 is 20.7 µM in assay [7], 39.7 µM in assay [8], 54.1 µM in assay [9] and 50.3 µM in assay [10]. Moreover, the TGI in [1], in [2], in assay [3], in assay [4], in assay [5] and in assay [6] was over 100 µM in each case. Besides, the TGI in [7], in assay [8], in [9] and in [10] was over 100 µM throughout.
In the case of `NC1=C(Cl)C(=O)c2ccc(S(N)(=O)=O)cc2C1=O`, the GI50 is 0.132 µM in assay [1]; 0.231 µM in [2]; 0.135 µM in assay [3]; 0.332 µM in [4]; 0.15 µM in assay [5]; 0.293 µM in assay [6]. Further, the GI50 was 0.198 µM in assay [7], 0.263 µM in [8], 0.314 µM in assay [9] and 0.172 µM in assay [10]. Moreover, the TGI in [1] stood at 0.273 µM; in assay [2] it was 0.595 µM; in assay [3], 0.273 µM; in assay [4] it was 1.06 µM; in assay [5], 0.346 µM; in assay [6], 0.89 µM. Also, the TGI came to 0.454 µM in assay [7], 0.895 µM in assay [8], 1.5 µM in [9] and 0.34 µM in [10].
Turning to `O=C1N=C(c2ccccc2)OC1C(=O)c1ccccc1` (stereo unspecified), the TGI in assay [1], in [2], in assay [3], in [4], in [5] and in assay [6] was over 100 µM throughout. Also, the TGI in assay [7], in assay [8], in [9] and in assay [10] was over 100 µM in each case.
On to `NC(CNO)C(=O)O` (stereo unspecified), for which the TGI in assay [1], in assay [2], in assay [3], in assay [4], in assay [5] and in assay [6] was over 100 µM in each case. Besides, the TGI in assay [7], in assay [8], in [9] and in [10] was over 100 µM each time.
On to `O=C1C(=O)c2ccccc2-c2ccccc21`, for which the GI50 in assay [1] was 1.68 µM; in assay [2], 1.72 µM; in [3], 1.52 µM; in assay [4] it was 1.86 µM; in assay [5], 1.67 µM; in assay [6], 2.06 µM. In addition, the GI50 in assay [7] was 1.72 µM; in assay [8], 1.44 µM; in assay [9] it was 1.31 µM; in [10], 1.61 µM. The TGI in assay [1] was determined as 3.07 µM; in [2], 3.18 µM; in assay [3], 3.03 µM; in [4] it was 3.4 µM; in assay [5], 3.8 µM; in [6], 4.78 µM. Besides, the TGI in assay [7] was 3.2 µM; in [8], 2.84 µM; in assay [9] it was 2.79 µM; in assay [10] it was 3.29 µM.
For the compound `N#CC(=S)Nc1ccc(Cl)c(Cl)c1`, the TGI in assay [1] was over 100 µM; in assay [2] it was 60.5 µM; in assay [3], 34.1 µM; in [4], over 95.6 µM; in [5], over 73.4 µM; in [6] it was over 100 µM. Moreover, the TGI in assay [7] is 54.3 µM; in assay [8], 82.5 µM; in [9], 44.8 µM; in [10], over 68.5 µM.
For the compound `O=C(O)C1NCCc2c1[nH]c1ccccc21` (stereo unspecified), the TGI was over 10 µM in assay [1]; over 100 µM in [2]; over 100 µM in assay [3]; over 100 µM in [4]; over 10 µM in assay [5]; over 100 µM in [6]. The TGI was over 100 µM in assay [7], over 100 µM in [8], over 10 µM in assay [9] and over 100 µM in assay [10]. For the same compound, the GI50 in assay [3], in [4], in [6], in assay [7], in [8] and in assay [10] was over 100 µM throughout.

These data come from PubChem BioAssay (NCI).
